Assay [1] concerns Epidermal growth factor receptor (Homo sapiens), P00533 [T790M]. Put plainly: Inhibition of EGFR T790M mutant (unknown origin) at 0.49 uM relative to control.
Assay [2] addresses Tyrosine-protein kinase BTK (Homo sapiens) (UniProt Q06187). The assay is described as follows: Inhibition of BTK (unknown origin) at 0.49 uM relative to control.
For assay [3], the target named is NT-3 growth factor receptor (Homo sapiens) (UniProt Q16288). The assay is described as follows: Inhibition of TRKC (unknown origin) at 0.49 uM relative to control.
Sequence of NT-3 growth factor receptor (Homo sapiens) (Q16288 32-839 limits assumed): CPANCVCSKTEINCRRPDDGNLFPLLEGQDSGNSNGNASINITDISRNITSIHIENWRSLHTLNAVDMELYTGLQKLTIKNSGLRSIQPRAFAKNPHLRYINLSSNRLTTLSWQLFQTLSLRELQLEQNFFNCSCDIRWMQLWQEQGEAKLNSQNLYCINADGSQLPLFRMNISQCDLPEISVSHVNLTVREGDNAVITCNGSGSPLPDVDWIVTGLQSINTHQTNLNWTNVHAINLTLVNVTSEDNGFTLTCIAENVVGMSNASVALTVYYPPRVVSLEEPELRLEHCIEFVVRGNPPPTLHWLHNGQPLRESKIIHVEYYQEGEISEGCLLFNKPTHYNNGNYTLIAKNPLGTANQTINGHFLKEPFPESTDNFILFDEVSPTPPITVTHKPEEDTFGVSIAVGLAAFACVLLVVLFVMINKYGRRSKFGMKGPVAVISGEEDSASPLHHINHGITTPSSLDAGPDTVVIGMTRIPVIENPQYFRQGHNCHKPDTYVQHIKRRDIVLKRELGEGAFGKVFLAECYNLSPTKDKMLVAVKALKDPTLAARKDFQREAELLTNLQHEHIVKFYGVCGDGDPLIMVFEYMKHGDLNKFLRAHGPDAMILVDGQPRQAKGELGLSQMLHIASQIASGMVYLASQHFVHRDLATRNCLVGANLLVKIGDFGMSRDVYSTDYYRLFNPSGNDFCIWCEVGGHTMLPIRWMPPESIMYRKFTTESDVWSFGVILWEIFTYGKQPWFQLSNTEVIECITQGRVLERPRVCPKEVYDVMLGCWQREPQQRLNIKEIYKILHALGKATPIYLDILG
The target of assay [4] is Ribosomal protein S6 kinase alpha-1 (Homo sapiens) (UniProt Q15418). Put plainly: Inhibition of RSK1 (unknown origin) at 0.49 uM relative to control.
Sequence of Ribosomal protein S6 kinase alpha-1 (Homo sapiens) (Q15418 whole entry): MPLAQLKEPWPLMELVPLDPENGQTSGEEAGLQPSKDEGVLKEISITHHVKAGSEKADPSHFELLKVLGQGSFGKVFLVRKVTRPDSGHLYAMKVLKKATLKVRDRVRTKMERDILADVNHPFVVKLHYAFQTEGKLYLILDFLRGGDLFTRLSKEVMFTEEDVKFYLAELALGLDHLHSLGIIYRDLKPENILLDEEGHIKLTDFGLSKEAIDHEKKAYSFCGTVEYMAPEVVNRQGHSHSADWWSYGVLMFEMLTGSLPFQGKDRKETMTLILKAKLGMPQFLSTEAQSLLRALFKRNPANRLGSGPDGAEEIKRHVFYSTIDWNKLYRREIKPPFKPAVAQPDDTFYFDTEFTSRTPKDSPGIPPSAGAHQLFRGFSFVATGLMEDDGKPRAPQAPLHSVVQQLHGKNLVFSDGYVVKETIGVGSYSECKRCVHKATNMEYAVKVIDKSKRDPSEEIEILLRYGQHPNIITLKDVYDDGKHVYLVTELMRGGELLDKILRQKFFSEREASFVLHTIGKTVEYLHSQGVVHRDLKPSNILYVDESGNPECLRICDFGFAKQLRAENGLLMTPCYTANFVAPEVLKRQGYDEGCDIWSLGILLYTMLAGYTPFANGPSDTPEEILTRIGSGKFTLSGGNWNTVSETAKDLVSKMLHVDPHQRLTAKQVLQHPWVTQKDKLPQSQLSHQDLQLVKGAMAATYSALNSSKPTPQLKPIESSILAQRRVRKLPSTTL
In assay [5] the target is T1, Calcium/calmodulin-dependent protein kinase type IV (Homo sapiens) (UniProt Q16566).
T1 sequence (whole entry): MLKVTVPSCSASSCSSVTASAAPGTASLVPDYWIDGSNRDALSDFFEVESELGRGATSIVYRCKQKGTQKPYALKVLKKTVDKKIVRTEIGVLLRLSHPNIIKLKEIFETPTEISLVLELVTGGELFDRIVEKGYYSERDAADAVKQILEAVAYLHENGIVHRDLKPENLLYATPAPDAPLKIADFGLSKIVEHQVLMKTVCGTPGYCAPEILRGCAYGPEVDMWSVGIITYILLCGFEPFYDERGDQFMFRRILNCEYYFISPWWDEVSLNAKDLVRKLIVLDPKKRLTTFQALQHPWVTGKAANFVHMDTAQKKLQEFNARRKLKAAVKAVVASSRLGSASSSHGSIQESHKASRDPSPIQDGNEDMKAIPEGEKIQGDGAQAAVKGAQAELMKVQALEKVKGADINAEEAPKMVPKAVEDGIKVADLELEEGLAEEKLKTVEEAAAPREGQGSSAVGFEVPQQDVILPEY
Put plainly: Inhibition of CAMK4 (unknown origin) at 0.49 uM relative to control.

Assay [6] has as its system Epidermal growth factor receptor (Homo sapiens), P00533 [L858R,T790M]. Put plainly: Inhibition of EGFR T790M/L858R double mutant (unknown origin) at 0.49 uM relative to control.
The target of assay [7] is Tyrosine-protein kinase Yes (Homo sapiens) (UniProt P07947). The assay is described as follows: Inhibition of Yes (unknown origin) at 0.45 uM relative to control.
Sequence of Tyrosine-protein kinase Yes (Homo sapiens) (P07947 2-543 limits assumed): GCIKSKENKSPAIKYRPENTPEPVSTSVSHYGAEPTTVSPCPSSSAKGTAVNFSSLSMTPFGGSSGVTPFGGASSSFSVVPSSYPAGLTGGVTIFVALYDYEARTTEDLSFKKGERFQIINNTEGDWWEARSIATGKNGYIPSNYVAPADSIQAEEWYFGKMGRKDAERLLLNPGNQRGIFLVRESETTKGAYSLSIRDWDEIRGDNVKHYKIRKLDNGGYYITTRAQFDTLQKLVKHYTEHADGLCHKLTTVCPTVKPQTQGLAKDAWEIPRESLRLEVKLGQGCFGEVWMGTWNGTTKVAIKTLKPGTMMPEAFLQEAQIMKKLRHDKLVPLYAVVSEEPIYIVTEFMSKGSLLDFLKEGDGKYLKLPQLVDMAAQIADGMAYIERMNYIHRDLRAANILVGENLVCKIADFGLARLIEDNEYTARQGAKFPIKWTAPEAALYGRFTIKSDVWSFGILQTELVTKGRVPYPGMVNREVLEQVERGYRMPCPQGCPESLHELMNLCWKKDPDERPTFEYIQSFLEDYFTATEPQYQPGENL
Assay [8] relates to Tyrosine-protein kinase ABL1 (Homo sapiens), P00519 [T315I]. Put plainly: Inhibition of Abl T315I mutant (unknown origin) at 0.45 uM relative to control.
Assay [9] addresses Dual specificity tyrosine-phosphorylation-regulated kinase 2 (Homo sapiens) (UniProt Q92630). The assay is described as follows: Inhibition of DYRK2 (unknown origin) at 0.45 uM relative to control.
Assay [10] concerns the target Casein kinase I isoform gamma-3 (Homo sapiens) (UniProt Q9Y6M4). The assay is described as follows: Inhibition of CSNK1G3 (unknown origin) at 0.45 uM relative to control.
In assay [11] the test system is Epidermal growth factor receptor (Homo sapiens), P00533 [T790M]. Put plainly: Inhibition of EGFR T790M mutant (unknown origin) at 0.45 uM relative to control.
Assay [12] has as its target Casein kinase I isoform delta (Homo sapiens) (UniProt P48730). The assay is described as follows: Inhibition of CK1-delta (unknown origin) at 0.45 uM relative to control.

Structures are written as SMILES.

Sequence of Epidermal growth factor receptor (Homo sapiens), P00533 [T790M] (P00533 whole entry T790M, canonical isoform): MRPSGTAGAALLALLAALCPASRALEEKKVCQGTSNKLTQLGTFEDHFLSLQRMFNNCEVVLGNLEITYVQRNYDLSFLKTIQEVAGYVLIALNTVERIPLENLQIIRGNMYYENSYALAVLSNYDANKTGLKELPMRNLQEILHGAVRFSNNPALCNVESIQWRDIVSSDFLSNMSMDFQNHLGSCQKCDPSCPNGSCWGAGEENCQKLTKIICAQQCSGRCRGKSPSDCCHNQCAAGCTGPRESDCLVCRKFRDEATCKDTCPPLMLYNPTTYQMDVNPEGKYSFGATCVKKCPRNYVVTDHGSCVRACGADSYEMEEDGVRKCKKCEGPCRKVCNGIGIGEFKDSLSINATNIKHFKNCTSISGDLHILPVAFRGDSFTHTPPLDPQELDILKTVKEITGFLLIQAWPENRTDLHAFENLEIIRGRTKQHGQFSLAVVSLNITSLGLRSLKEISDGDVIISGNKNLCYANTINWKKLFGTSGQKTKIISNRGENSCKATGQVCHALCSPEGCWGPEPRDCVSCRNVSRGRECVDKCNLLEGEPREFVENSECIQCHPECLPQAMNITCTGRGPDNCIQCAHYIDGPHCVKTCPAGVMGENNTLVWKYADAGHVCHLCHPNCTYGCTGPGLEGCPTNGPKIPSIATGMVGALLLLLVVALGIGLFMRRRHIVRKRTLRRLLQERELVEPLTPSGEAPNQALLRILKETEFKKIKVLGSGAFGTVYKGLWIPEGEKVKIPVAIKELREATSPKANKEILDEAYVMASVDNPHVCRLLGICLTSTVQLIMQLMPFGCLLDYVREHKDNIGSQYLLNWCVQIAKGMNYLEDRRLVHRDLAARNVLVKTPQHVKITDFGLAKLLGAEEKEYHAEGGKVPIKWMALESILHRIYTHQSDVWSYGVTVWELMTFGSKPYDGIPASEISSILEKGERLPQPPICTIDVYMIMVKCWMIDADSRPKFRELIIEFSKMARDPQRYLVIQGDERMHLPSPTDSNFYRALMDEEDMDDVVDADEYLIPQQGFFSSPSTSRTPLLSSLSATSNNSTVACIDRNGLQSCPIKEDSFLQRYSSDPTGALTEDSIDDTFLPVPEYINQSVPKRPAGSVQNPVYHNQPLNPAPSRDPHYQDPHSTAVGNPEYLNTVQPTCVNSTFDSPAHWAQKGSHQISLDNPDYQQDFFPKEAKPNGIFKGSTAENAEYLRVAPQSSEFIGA
Sequence of Casein kinase I isoform delta (Homo sapiens) (P48730 whole entry, looked up, canonical isoform): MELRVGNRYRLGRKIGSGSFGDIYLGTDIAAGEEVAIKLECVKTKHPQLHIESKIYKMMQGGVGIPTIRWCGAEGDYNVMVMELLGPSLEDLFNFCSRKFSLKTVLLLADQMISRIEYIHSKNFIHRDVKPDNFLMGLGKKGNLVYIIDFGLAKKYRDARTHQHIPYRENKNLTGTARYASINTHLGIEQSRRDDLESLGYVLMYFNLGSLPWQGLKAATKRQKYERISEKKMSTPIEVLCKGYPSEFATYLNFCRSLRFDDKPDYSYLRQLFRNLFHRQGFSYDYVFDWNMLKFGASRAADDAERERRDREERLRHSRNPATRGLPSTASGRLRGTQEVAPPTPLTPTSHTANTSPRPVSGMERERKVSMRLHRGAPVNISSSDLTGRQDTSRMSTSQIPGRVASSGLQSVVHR
Sequence of Casein kinase I isoform gamma-3 (Homo sapiens) (Q9Y6M4 whole entry, looked up, canonical isoform): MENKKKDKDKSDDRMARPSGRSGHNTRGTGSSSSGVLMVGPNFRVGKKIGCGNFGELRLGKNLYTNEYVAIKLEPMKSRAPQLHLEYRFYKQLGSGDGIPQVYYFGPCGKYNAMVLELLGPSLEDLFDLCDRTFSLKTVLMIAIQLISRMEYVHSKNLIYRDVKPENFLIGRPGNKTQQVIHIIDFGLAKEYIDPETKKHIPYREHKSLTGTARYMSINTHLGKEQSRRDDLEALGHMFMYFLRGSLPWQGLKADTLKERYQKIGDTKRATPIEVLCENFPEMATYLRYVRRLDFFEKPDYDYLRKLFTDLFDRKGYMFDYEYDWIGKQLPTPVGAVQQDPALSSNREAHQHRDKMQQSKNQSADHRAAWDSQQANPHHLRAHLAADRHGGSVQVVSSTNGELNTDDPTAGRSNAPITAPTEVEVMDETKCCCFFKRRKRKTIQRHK
Sequence of Dual specificity tyrosine-phosphorylation-regulated kinase 2 (Homo sapiens) (Q92630 whole entry, canonical isoform): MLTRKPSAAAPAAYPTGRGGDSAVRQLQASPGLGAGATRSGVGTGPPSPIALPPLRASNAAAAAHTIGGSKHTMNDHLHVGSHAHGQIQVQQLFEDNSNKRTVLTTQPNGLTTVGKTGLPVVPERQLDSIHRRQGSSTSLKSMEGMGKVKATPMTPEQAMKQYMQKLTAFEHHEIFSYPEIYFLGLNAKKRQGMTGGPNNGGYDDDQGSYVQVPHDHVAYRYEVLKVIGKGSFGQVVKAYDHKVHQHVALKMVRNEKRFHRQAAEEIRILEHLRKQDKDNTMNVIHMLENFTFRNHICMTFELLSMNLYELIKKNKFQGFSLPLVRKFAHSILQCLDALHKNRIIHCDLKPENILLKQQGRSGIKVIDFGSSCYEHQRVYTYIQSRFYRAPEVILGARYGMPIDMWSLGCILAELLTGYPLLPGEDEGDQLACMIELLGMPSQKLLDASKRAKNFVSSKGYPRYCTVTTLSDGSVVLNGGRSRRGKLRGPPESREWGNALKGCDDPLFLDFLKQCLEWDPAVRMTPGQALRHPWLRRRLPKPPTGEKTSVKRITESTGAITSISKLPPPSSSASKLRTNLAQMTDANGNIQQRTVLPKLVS

What is called inhibition is the change of the read-out against control, counted positive when it falls. Take `Cc1[nH]nc(C2CC2)c1-c1ccc2c(NC(=O)C3CC3)noc2c1`: the inhibition in assay [1] is 0.7%; in assay [2], 0.3%; in assay [3], 6.3%; in [4], 2.3%; in [5], 2.3%; in [6] it was -1%.

On to `Cc1n[nH]c(C)c1-c1ccc2c(NC(=O)c3ccc(N4CCN(C)CC4)cc3)n[nH]c2c1`, for which the inhibition in assay [7] was 49%; in assay [8], 58.7%; in assay [9], 8%; in assay [10], -0.7%; in [11] it was 0.7%; in [12], 5%.

These data come from ChEMBL document CHEMBL4052759, “Discovery of DS79182026: A potent orally active hepcidin production inhibitor” (Bioorg Med Chem Lett, 2017).
